Assay results taken from PubChem BioAssay (NCI).
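Assay format: 96-well plates, 48-hour exposure. GI50 is the concentration that inhibits growth by half. TGI denotes the concentration required for complete inhibition of growth.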

Legend:
Assay in all cases: NCI-60 cell line screen, 48 h
SK-MEL-2 melanoma = test system: SK-MEL-2 melanoma
M14 melanoma = test system: M14 melanoma
SK-MEL-5 melanoma = test system: SK-MEL-5 melanoma
KM12 colon = test system: KM12 colon
MCF7 breast = test system: MCF7 breast
NCI-H226 lung = test system: NCI-H226 lung
NCI-H522 lung = test system: NCI-H522 lung
SNB-75 CNS = test system: SNB-75 CNS
SNB-19 CNS = test system: SNB-19 CNS
MOLT-4 leukemia = test system: MOLT-4 leukemia
SF-295 CNS = test system: SF-295 CNS
HCC-2998 colon = test system: HCC-2998 colon
HS 578T breast = test system: HS 578T breast
NCI-H460 lung = test system: NCI-H460 lung
OVCAR-4 ovarian = test system: OVCAR-4 ovarian
A498 renal = test system: A498 renal
A549 NSCLC = test system: A549 NSCLC
786-0 renal = test system: 786-0 renal
SK-MEL-28 melanoma = test system: SK-MEL-28 melanoma
BT-549 breast = test system: BT-549 breast
SW-620 colon = test system: SW-620 colon
PC-3 prostate = test system: PC-3 prostate
SK-OV-3 ovarian = test system: SK-OV-3 ovarian
COLO 205 colon = test system: COLO 205 colon
HCT-116 colon = test system: HCT-116 colon
OVCAR-5 ovarian = test system: OVCAR-5 ovarian
NCI-H23 lung = test system: NCI-H23 lung
HT29 colon = test system: HT29 colon
HOP-92 NSCLC = test system: HOP-92 NSCLC
SF-539 CNS = test system: SF-539 CNS
HCT-15 colon = test system: HCT-15 colon
CCRF-CEM leukemia = test system: CCRF-CEM leukemia
SR leukemia = test system: SR leukemia
HL-60(TB) leukemia = test system: HL-60(TB) leukemia
K-562 leukemia = test system: K-562 leukemia
ACHN renal = test system: ACHN renal
SN12C renal = test system: SN12C renal
TK-10 renal = test system: TK-10 renal
UACC-257 melanoma = test system: UACC-257 melanoma
NCI/ADR-RES ovarian = test system: NCI/ADR-RES ovarian
HOP-62 NSCLC = test system: HOP-62 NSCLC
CAKI-1 renal = test system: CAKI-1 renal
UO-31 renal = test system: UO-31 renal
RPMI-8226 leukemia = test system: RPMI-8226 leukemia
T-47D breast = test system: T-47D breast
RXF 393 renal = test system: RXF 393 renal
SF-268 CNS = test system: SF-268 CNS
U251 CNS = test system: U251 CNS
LOX IMVI melanoma = test system: LOX IMVI melanoma
DU-145 prostate = test system: DU-145 prostate
UACC-62 melanoma = test system: UACC-62 melanoma
OVCAR-3 ovarian = test system: OVCAR-3 ovarian
MDA-MB-231 breast = test system: MDA-MB-231 breast
MDA-MB-435 = test system: MDA-MB-435
OVCAR-8 ovarian = test system: OVCAR-8 ovarian
IGROV1 ovarian = test system: IGROV1 ovarian
MALME-3M melanoma = test system: MALME-3M melanoma

Question: With `COc1cc(OC)c(/C=C/c2cc[n+](C)c3ccccc23)c(OC)c1` as the compound, how does the GI50 (SK-MEL-2 melanoma) read?
Answer: 2.66 µM

Question: And the TGI (SK-MEL-2 melanoma)?
Answer: 6.32 µM

Question: What about the GI50 (M14 melanoma) of the same compound?
Answer: 2.88 µM

Question: What about the TGI (M14 melanoma) of the same compound?
Answer: 15.8 µM

Question: What about the GI50 (SK-MEL-5 melanoma) of the same compound?
Answer: 0.928 µM

Question: What about the TGI (SK-MEL-5 melanoma) of the same compound?
Answer: 2.39 µM

Question: And the GI50 (KM12 colon)?
Answer: 1.41 µM

Question: What about the TGI (KM12 colon) of the same compound?
Answer: 3.95 µM

Question: What about the GI50 (MCF7 breast) of the same compound?
Answer: 2.7 µM

Question: And the TGI (MCF7 breast)?
Answer: > 100 µM

Question: What about the GI50 (NCI-H226 lung) of the same compound?
Answer: 1.99 µM

Question: What about the TGI (NCI-H226 lung) of the same compound?
Answer: 17.3 µM

Question: What about the GI50 (NCI-H522 lung) of the same compound?
Answer: 1.61 µM

Question: And the TGI (NCI-H522 lung)?
Answer: 6.34 µM

Question: What about the GI50 (SNB-75 CNS) of the same compound?
Answer: 0.932 µM

Question: What about the TGI (SNB-75 CNS) of the same compound?
Answer: 11.2 µM

Question: And the GI50 (SNB-19 CNS)?
Answer: 0.795 µM

Question: What about the TGI (SNB-19 CNS) of the same compound?
Answer: 15.4 µM

Question: And the GI50 (MOLT-4 leukemia)?
Answer: 3.19 µM

Question: What about the TGI (MOLT-4 leukemia) of the same compound?
Answer: 33.9 µM

Question: And the GI50 (SF-295 CNS)?
Answer: 0.702 µM

Question: And the TGI (SF-295 CNS)?
Answer: 6.48 µM

Question: What about the GI50 (HCC-2998 colon) of the same compound?
Answer: 2.46 µM

Question: What about the TGI (HCC-2998 colon) of the same compound?
Answer: 13.9 µM

Question: What about the GI50 (HS 578T breast) of the same compound?
Answer: 1.48 µM

Question: What about the TGI (HS 578T breast) of the same compound?
Answer: 12.4 µM

Question: What about the GI50 (NCI-H460 lung) of the same compound?
Answer: 0.98 µM

Question: What about the TGI (NCI-H460 lung) of the same compound?
Answer: 5.85 µM

Question: What about the GI50 (OVCAR-4 ovarian) of the same compound?
Answer: 2.51 µM

Question: What about the TGI (OVCAR-4 ovarian) of the same compound?
Answer: 23 µM

Question: And the GI50 (A498 renal)?
Answer: 1.24 µM

Question: What about the TGI (A498 renal) of the same compound?
Answer: 6.04 µM

Question: What about the GI50 (A549 NSCLC) of the same compound?
Answer: 1.8 µM

Question: What about the TGI (A549 NSCLC) of the same compound?
Answer: 54.6 µM

Question: What about the GI50 (786-0 renal) of the same compound?
Answer: 4.4 µM

Question: And the TGI (786-0 renal)?
Answer: 22.3 µM

Question: What about the GI50 (SK-MEL-28 melanoma) of the same compound?
Answer: 2.3 µM

Question: What about the TGI (SK-MEL-28 melanoma) of the same compound?
Answer: 9.77 µM

Question: What about the GI50 (BT-549 breast) of the same compound?
Answer: 1.79 µM

Question: And the TGI (BT-549 breast)?
Answer: 13.6 µM

Question: What about the GI50 (SW-620 colon) of the same compound?
Answer: 2.56 µM

Question: What about the TGI (SW-620 colon) of the same compound?
Answer: 16.9 µM

Question: What about the GI50 (PC-3 prostate) of the same compound?
Answer: 1.68 µM

Question: And the TGI (PC-3 prostate)?
Answer: 12.6 µM

Question: What about the GI50 (SK-OV-3 ovarian) of the same compound?
Answer: 3.32 µM

Question: What about the TGI (SK-OV-3 ovarian) of the same compound?
Answer: 17.5 µM

Question: What about the GI50 (COLO 205 colon) of the same compound?
Answer: 1.23 µM

Question: And the TGI (COLO 205 colon)?
Answer: 2.9 µM

Question: And the GI50 (HCT-116 colon)?
Answer: 1.27 µM

Question: What about the TGI (HCT-116 colon) of the same compound?
Answer: 33.7 µM

Question: And the GI50 (OVCAR-5 ovarian)?
Answer: 3.66 µM

Question: What about the TGI (OVCAR-5 ovarian) of the same compound?
Answer: 38.7 µM

Question: What about the GI50 (NCI-H23 lung) of the same compound?
Answer: 1.74 µM

Question: And the TGI (NCI-H23 lung)?
Answer: 17.3 µM

Question: And the GI50 (HT29 colon)?
Answer: 1.94 µM

Question: And the TGI (HT29 colon)?
Answer: 7.28 µM

Question: What about the GI50 (HOP-92 NSCLC) of the same compound?
Answer: 1.42 µM

Question: And the TGI (HOP-92 NSCLC)?
Answer: 4.7 µM

Question: What about the GI50 (SF-539 CNS) of the same compound?
Answer: 2.14 µM

Question: And the TGI (SF-539 CNS)?
Answer: 10.9 µM

Question: What about the GI50 (HCT-15 colon) of the same compound?
Answer: 23.3 µM

Question: And the TGI (HCT-15 colon)?
Answer: > 100 µM

Question: What about the GI50 (CCRF-CEM leukemia) of the same compound?
Answer: 2.71 µM

Question: What about the TGI (CCRF-CEM leukemia) of the same compound?
Answer: > 100 µM

Question: And the GI50 (SR leukemia)?
Answer: 1.92 µM

Question: And the TGI (SR leukemia)?
Answer: > 100 µM

Question: What about the GI50 (HL-60(TB) leukemia) of the same compound?
Answer: 1.33 µM

Question: And the TGI (HL-60(TB) leukemia)?
Answer: 8.58 µM

Question: And the GI50 (K-562 leukemia)?
Answer: 1 µM

Question: What about the TGI (K-562 leukemia) of the same compound?
Answer: > 100 µM

Question: And the GI50 (ACHN renal)?
Answer: 13.5 µM

Question: What about the TGI (ACHN renal) of the same compound?
Answer: > 100 µM

Question: And the GI50 (SN12C renal)?
Answer: 1.05 µM

Question: What about the TGI (SN12C renal) of the same compound?
Answer: 13 µM

Question: What about the GI50 (TK-10 renal) of the same compound?
Answer: 3.54 µM

Question: What about the TGI (TK-10 renal) of the same compound?
Answer: 18.1 µM

Question: What about the GI50 (UACC-257 melanoma) of the same compound?
Answer: 1.86 µM

Question: What about the TGI (UACC-257 melanoma) of the same compound?
Answer: 5.98 µM

Question: What about the GI50 (NCI/ADR-RES ovarian) of the same compound?
Answer: > 100 µM

Question: What about the TGI (NCI/ADR-RES ovarian) of the same compound?
Answer: > 100 µM

Question: What about the GI50 (HOP-62 NSCLC) of the same compound?
Answer: 3.17 µM

Question: What about the TGI (HOP-62 NSCLC) of the same compound?
Answer: 20.8 µM

Question: What about the GI50 (CAKI-1 renal) of the same compound?
Answer: 18.3 µM

Question: And the TGI (CAKI-1 renal)?
Answer: > 100 µM

Question: What about the GI50 (UO-31 renal) of the same compound?
Answer: 17.3 µM

Question: And the TGI (UO-31 renal)?
Answer: > 100 µM

Question: What about the GI50 (RPMI-8226 leukemia) of the same compound?
Answer: 0.648 µM

Question: And the TGI (RPMI-8226 leukemia)?
Answer: 11.6 µM

Question: And the GI50 (T-47D breast)?
Answer: 1.72 µM

Question: What about the TGI (T-47D breast) of the same compound?
Answer: 33.7 µM

Question: What about the GI50 (RXF 393 renal) of the same compound?
Answer: 2.66 µM

Question: What about the TGI (RXF 393 renal) of the same compound?
Answer: 19.2 µM

Question: And the GI50 (SF-268 CNS)?
Answer: 0.691 µM

Question: What about the TGI (SF-268 CNS) of the same compound?
Answer: 12.8 µM

Question: What about the GI50 (U251 CNS) of the same compound?
Answer: 0.536 µM

Question: What about the TGI (U251 CNS) of the same compound?
Answer: 11.7 µM

Question: What about the GI50 (LOX IMVI melanoma) of the same compound?
Answer: 1.29 µM

Question: What about the TGI (LOX IMVI melanoma) of the same compound?
Answer: 3.15 µM

Question: And the GI50 (DU-145 prostate)?
Answer: 2.47 µM

Question: What about the TGI (DU-145 prostate) of the same compound?
Answer: 15.5 µM

Question: And the GI50 (UACC-62 melanoma)?
Answer: 1.58 µM

Question: And the TGI (UACC-62 melanoma)?
Answer: 5.66 µM

Question: And the GI50 (OVCAR-3 ovarian)?
Answer: 1.68 µM

Question: And the TGI (OVCAR-3 ovarian)?
Answer: 7.35 µM

Question: And the GI50 (MDA-MB-231 breast)?
Answer: 2.77 µM

Question: What about the TGI (MDA-MB-231 breast) of the same compound?
Answer: 12.8 µM

Question: And the GI50 (MDA-MB-435)?
Answer: 1.83 µM

Question: And the TGI (MDA-MB-435)?
Answer: 7.37 µM

Question: What about the GI50 (OVCAR-8 ovarian) of the same compound?
Answer: 1.62 µM

Question: And the TGI (OVCAR-8 ovarian)?
Answer: 10.2 µM

Question: What about the GI50 (IGROV1 ovarian) of the same compound?
Answer: 3.62 µM

Question: What about the TGI (IGROV1 ovarian) of the same compound?
Answer: 25.9 µM

Question: And the GI50 (MALME-3M melanoma)?
Answer: 1.87 µM

Question: What about the TGI (MALME-3M melanoma) of the same compound?
Answer: 8.04 µM
